Each molecule was assayed on HRV14 (assay: Inhibitory activity against human rhinovirus infection and replication (quantitative real-time PCR)). Settings: Human rhinovirus sp., MRC5; 100 nmol/L test compound; MRC-5 cells infected with HRV14 at MOI=0.2; 48 hours; viral load normalized to 18s rRNA; read-out: Percent Inhibition.
Format: cell-based
How it was run: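 Near-confluent MRC-5 cells were pretreated 30 min with compound at 100 or 1000 nmol/L, then infected with HRV14 (MOI 0.2) in compound-containing medium (2% FBS, 30 mmol/L MgCl2) and cultured 48 h at 35 °C. HRV14 RNA by qRT-PCR, normalized to 18S rRNA; percent inhibition versus untreated infected cells.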
In the case of `COc1ccc(-c2c(C)nc3sc(C(O)(C4CC4)C4CC4)nn23)cc1S(=O)(=O)C(C)(C)CO` [Example 4-5], the inhibition at 0.1 µM is reported as > 80%.
With `Cc1nc2sc(C(C)(C)O)nn2c1-c1ccc(C(F)(F)F)c(S(=O)(=O)C(C)(C)C(=O)O)c1` [Example 5] the inhibition at 0.1 µM was ≤ 50%.
`COc1ccc(-c2c(C)nc3sc(C(C)(C)O)nn23)cc1S(=O)(=O)C(C)(C)C(N)=O` [Example 6-1] showed an inhibition at 0.1 µM of 50 to 80%.
For `Cc1nc2sc(C(C)(C)O)nn2c1-c1ccc(C(F)(F)F)c(S(=O)(=O)C(C)(C)C(N)=O)c1` [Example 6-2], the inhibition at 0.1 µM was ≤ 50%.
With `COc1ccc(-c2c(C)nc3sc(C(O)(C4CC4)C4CC4)nn23)cc1S(=O)(=O)C(C)(C)C(N)=O` [Example 6-3] the inhibition at 0.1 µM was > 80%.
With `COc1c(F)cc(-c2c(C)nc3sc(C(O)(C4CC4)C4CC4)nn23)cc1S(=O)(=O)C(C)(C)C(N)=O` [Example 6-4] the inhibition at 0.1 µM was > 80%.
For `COc1ccc(-c2c(C)nc3sc(C(C)(C)O)nn23)cc1S(=O)(=O)C(C)(C)C#N` [Example 7-1], the inhibition at 0.1 µM was > 80%.
With `COc1ccc(-c2c(C)nc3sc(C(O)(C4CC4)C4CC4)nn23)cc1S(=O)(=O)C(C)(C)C#N` [Example 7-2] the inhibition at 0.1 µM was > 80%.
Work on `CNC(=O)C(C)(C)S(=O)(=O)c1cc(-c2c(C)nc3sc(C(C)(C)O)nn23)ccc1OC` [Example 8-1] yielded an inhibition at 0.1 µM of 50 to 80%.
For `COc1ccc(-c2c(C)nc3sc(C(O)(C4CC4)C4CC4)nn23)cc1S(=O)(=O)C(C)(C)C(=O)NCC(C)(C)O` [Example 8-3], the inhibition at 0.1 µM was > 80%.
In the case of `CNC(=O)C(C)(C)S(=O)(=O)c1cc(-c2c(C)nc3sc(C(O)(C4CC4)C4CC4)nn23)ccc1OC` [Example 8-4], the inhibition at 0.1 µM is reported as > 80%.
In the case of `Cc1nc2sc(C(C)(C)O)nn2c1-c1ccc(C(F)(F)F)c(S(=O)(=O)C2CN(S(C)(=O)=O)C2)c1` [Example 9-1], the inhibition at 0.1 µM is reported as > 80%.
With `COc1ccc(-c2c(C)nc3sc(C(C)(C)O)nn23)cc1S(=O)(=O)C1CN(S(C)(=O)=O)C1` [Example 9-2] the inhibition at 0.1 µM was 50 to 80%.
`COc1ccc(-c2c(C)nc3sc(C(O)(C4CC4)C4CC4)nn23)cc1S(=O)(=O)C1CN(S(C)(=O)=O)C1` [Example 9-3] was tested, and the inhibition at 0.1 µM was > 80%.
`CC(=O)N1CC(S(=O)(=O)c2cc(-c3c(C)nc4sc(C(C)(C)O)nn34)ccc2C(F)(F)F)C1` [Example 10-1] was tested, and the inhibition at 0.1 µM was > 80%.
For `COc1ccc(-c2c(C)nc3sc(C(C)(C)O)nn23)cc1S(=O)(=O)C1CN(C(C)=O)C1` [Example 10-2], the inhibition at 0.1 µM was ≤ 50%.
In the case of `COc1ccc(-c2c(C)nc3sc(C(O)(C4CC4)C4CC4)nn23)cc1S(=O)(=O)C1CN(C(C)=O)C1` [Example 10-3], the inhibition at 0.1 µM is reported as > 80%.
`Cc1nc2sc(C(C)(C)O)nn2c1-c1ccc(C(F)(F)F)c(S(=O)(=O)C2CN(C(N)=O)C2)c1` [Example 11] was tested, and the inhibition at 0.1 µM was ≤ 50%.
`Cc1nc2sc(C(C)(C)O)nn2c1-c1ccc(C(F)(F)F)c(S(=O)(=O)C2CN(C)C2)c1` [Example 12-1] showed an inhibition at 0.1 µM of 50 to 80%.
Molecule `Cc1nc2sc(C(C)(C)O)nn2c1-c1ccc(C(F)(F)F)c(S(=O)(=O)C2CN(CCO)C2)c1` [Example 12-2] has an inhibition at 0.1 µM of 50 to 80%.
With `COc1ccc(-c2c(C)nc3sc(C(C)(C)O)nn23)cc1S(=O)(=O)C1CCC(=O)CC1` [Example 13] the inhibition at 0.1 µM was ≤ 50%.
`COc1ccc(-c2c(C)nc3sc(C(C)(C)O)nn23)cc1S(=O)(=O)C1CCC(O)CC1` (stereo not drawn) [Example 14] was tested, and the inhibition at 0.1 µM was ≤ 50%.
In the case of `COc1ccc(-c2c(C)nc3sc(C(C)(C)O)nn23)cc1S(=O)(=O)[C@H]1CC[C@@](C)(O)CC1` [Example 15-1], the inhibition at 0.1 µM is reported as ≤ 50%.
`COc1ccc(-c2c(C)nc3sc(C(C)(C)O)nn23)cc1S(=O)(=O)[C@H]1CC[C@](C)(O)CC1` [Example 15-2] was tested, and the inhibition at 0.1 µM was 50 to 80%.
With `Cc1nc2sc(C(C)(C)O)nn2c1-c1ccc(O)c(S(=O)(=O)CC(C)(C)O)c1` [Example 16] the inhibition at 0.1 µM was ≤ 50%.
For `Cc1nc2sc(C(C)(C)O)nn2c1-c1ccc(CO)c(S(=O)(=O)CC(C)(C)O)c1` [Example 17], the inhibition at 0.1 µM was ≤ 50%.
Work on `COc1ccc(-c2c(C)nc3sc(C(C)(C)C(=O)O)nn23)cc1S(=O)(=O)N[C@H]1CC[C@@H](O)CC1` [Example 18-1] yielded an inhibition at 0.1 µM of 50 to 80%.

— patent US11952387B2, “Bicyclic heteroaromatic ring derivative” (priority 2018, dated 2024)
